The source of these data is patent US10858626B2, “Adoptive immunotherapy for treating cancer” (UNIVERSITÉ DE LAUSANNE, priority 2014, dated 2020).

The subject of one test is kinases. Conditions: other kinases inhibited; cited from earlier work.
A further test addresses TIE-2 (Homo sapiens, UniProt Q02763). The note with it: read-out: IC 50 TIE-2; cited from earlier work.
For another test, the system named is breast tumor fragments. As to the kind of experiment: Expansion of T cells in vitro from breast tumor fragments treated with kinase inhibitors (Example 2). The test is classed as cell-based, human. The note with it: first 20 days of culture, high doses IL-2, 12 h inhibitor treatment. The text has this: The fragments were washed, placed in culture as previously described and 20 days later the number of T cells obtained were counted. Antibodies and multimers of MHC class I: antibodies specific for CD4, CD8, CD3 and CD28 were from Beckton Dikinson. Antibodies specific for PD-1 were from Affimetrix eBioscience (clone J105, PD-1 PerCP-eF710), anti-LAG-3 antibodies were from Enzo Life Science (clone 17B4, LAG-3-FITC), anti-CD137 antibodies were from Biolegend (clone 4B4-1, CD137-BV605). Fluorescently labelled Her2/neu MHC-classI multimers were from TCMetrix (Epalinges, Swizerland).

Another test has as its target VEGFR-1 (Homo sapiens, UniProt P17948). The note with it: cited from earlier work.

Chain of TIE-2 (Q02763 23-1124, species assumed): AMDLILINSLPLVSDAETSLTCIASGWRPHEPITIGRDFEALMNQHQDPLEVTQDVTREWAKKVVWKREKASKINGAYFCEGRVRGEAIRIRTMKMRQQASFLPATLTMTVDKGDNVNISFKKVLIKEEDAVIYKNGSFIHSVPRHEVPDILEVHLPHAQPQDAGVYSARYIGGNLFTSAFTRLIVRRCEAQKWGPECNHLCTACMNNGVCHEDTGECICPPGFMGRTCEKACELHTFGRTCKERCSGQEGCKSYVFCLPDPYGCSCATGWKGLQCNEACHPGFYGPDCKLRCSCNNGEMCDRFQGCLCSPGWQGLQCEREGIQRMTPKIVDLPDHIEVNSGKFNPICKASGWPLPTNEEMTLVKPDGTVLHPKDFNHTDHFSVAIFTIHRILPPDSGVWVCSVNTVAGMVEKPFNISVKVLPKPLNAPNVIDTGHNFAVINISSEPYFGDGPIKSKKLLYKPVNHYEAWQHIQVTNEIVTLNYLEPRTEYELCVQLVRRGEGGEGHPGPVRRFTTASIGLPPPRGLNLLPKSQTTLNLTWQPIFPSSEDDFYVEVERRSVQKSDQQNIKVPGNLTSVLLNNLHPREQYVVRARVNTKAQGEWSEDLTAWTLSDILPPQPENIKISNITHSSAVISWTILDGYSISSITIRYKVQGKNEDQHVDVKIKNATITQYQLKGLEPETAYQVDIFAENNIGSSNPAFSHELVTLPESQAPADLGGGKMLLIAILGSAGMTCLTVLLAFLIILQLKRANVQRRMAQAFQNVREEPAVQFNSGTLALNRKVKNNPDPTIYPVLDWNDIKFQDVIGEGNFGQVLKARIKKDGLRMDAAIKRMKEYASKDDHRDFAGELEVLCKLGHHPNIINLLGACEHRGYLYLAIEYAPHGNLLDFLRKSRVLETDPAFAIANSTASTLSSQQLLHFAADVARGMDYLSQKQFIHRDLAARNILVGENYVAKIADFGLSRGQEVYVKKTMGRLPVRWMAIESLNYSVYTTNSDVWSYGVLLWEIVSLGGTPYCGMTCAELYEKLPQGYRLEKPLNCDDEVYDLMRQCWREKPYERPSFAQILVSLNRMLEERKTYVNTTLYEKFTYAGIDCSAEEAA
Chain of VEGFR-1 (P17948 27-1338, species assumed): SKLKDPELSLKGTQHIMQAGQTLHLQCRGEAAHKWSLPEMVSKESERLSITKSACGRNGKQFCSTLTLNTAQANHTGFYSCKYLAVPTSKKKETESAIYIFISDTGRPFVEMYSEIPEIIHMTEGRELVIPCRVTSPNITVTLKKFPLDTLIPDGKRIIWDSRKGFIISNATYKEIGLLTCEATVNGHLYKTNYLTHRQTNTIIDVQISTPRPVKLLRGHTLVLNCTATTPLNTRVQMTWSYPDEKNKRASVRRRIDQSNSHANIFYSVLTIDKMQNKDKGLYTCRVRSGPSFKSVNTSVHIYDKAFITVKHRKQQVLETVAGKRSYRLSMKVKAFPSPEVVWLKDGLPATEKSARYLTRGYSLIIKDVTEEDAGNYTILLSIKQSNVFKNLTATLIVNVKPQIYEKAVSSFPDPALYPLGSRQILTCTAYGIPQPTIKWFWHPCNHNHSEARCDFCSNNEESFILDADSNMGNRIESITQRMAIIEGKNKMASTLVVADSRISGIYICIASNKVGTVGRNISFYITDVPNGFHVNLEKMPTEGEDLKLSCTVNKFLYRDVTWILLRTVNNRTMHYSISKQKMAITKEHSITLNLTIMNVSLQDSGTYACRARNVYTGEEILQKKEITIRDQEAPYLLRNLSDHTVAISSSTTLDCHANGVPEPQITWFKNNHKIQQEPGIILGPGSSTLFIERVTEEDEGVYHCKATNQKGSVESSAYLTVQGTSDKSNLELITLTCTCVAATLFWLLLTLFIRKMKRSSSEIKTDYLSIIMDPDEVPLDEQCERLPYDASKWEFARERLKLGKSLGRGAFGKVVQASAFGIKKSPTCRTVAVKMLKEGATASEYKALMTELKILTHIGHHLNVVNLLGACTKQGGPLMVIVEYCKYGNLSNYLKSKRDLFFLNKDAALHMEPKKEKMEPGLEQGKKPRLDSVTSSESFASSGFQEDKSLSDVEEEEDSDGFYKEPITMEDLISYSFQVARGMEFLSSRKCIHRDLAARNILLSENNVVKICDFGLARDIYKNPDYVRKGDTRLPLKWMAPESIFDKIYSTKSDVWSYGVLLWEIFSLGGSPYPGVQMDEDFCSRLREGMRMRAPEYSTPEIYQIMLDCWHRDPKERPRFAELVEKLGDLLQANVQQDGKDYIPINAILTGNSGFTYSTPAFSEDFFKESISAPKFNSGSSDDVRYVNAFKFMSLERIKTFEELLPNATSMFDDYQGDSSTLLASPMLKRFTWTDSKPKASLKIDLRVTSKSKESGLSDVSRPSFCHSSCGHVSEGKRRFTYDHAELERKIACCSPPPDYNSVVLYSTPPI

`O=C(Nc1cc(Oc2cc(F)c(NC(=O)C3(C(=O)Nc4ccc(F)cc4)CC3)cc2F)ccn1)C1CC1` [Altiratinib (DCC-2701), Altiratinib]: the Additional inhibition reported result with kinases is “Met”. Besides, the IC50 at TIE-2 is 2 nM. As for `COc1cc2nccc(Oc3ccc(NC(=O)Nc4cc(C)on4)c(Cl)c3)c2cc1OC` [Tivozanib], the Additional inhibition reported result in the test with kinases is “PDGFR, c-Kit”. `COc1ccc2cc(-c3[nH]c(-c4ccc([S+](C)[O-])cc4)nc3-c3ccncc3)ccc2c1` (centres unmarked) [SB633825, 4-(5-(6-methoxynaphthalen-2-yl)-2-(4-(methylsulfinyl)phenyl)-1H-imidazol-4-yl)pyridine]: the “Number of T cells expanded per 1 mm3 of breast tumor tissue” value with breast tumor fragments is “more than one million”. In addition, the Additional inhibition reported result in the test with kinases is “p38, PDGFR1”.

For the compound `Cc1ccc(OC(=O)N(CC(=O)N[C@@H](C)C2CCCCC2)Cc2ccc(-c3cncc(C(=O)O)c3)cc2)cc1` [Compound 7, 5-[4-[[[2-[[(1S)-1-Cyclohexylethyl]amino]-2-oxoethyl][(4methylphenoxy)carbonyl]amino]methyl]phenyl]-3-pyridinecarboxylic acid], on TIE-2, the IC50 was 300 nM.

For `Clc1ccc(Nc2nnc(Cc3ccncc3)c3ccccc23)cc1` [PTK787, Vatalanib], in the test with kinases, the Additional inhibition reported entry is “c-Kit, PDGFR”. Consider `CNC(=O)c1cc(Oc2ccc(NC(=O)Nc3cc(C(C)(C)C)nn3-c3ccc4ncccc4c3)c(F)c2)ccn1` [Rebastinib (DCC-2036), Rebastinib], for which the IC50 at VEGFR-1 was 12 nM.
